Measurements as given in ChEMBL document CHEMBL1201862, “PubChem BioAssay data set” (2004).
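Interpolation was linear, between the two tested concentrations surrounding the appropriate level; five concentrations were tested over 48 hours in 96-well plates. Abbreviation: GI50, concentration required for 50% inhibition of growth.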 The source made the active and inactive calls. Cut-off read from the data, not from the text of the source: active = GI50 up to about 1.1 µM and inactive = higher.

What was measured:
Test in all cases: DTP human tumour cell line panel, 48 h
MDA-MB-231 = system: MDA-MB-231
NCI-H23 = system: NCI-H23
ACHN = system: ACHN
786-0 = system: 786-0
MOLT-4 = system: MOLT-4
OVCAR-8 = system: OVCAR-8
SF-295 = system: SF-295
Malme-3M = system: Malme-3M
NCI/ADR-RES = system: NCI/ADR-RES
UACC-62 = system: UACC-62
DU-145 = system: DU-145
LOX IMVI = system: LOX IMVI
HCT-116 = system: HCT-116
SNB-75 = system: SNB-75
SF-268 = system: SF-268
A498 = system: A498
SK-OV-3 = system: SK-OV-3
NCI-H226 = system: NCI-H226
OVCAR-5 = system: OVCAR-5
HOP-92 = system: HOP-92
SN12C = system: SN12C
Hs-578T = system: Hs-578T
COLO 205 = system: COLO 205
UACC-257 = system: UACC-257
M14 = system: M14
SNB-19 = system: SNB-19
U-251 = system: U-251
MDA-MB-435 = system: MDA-MB-435
HT-29 = system: HT-29
NCI-H522 = system: NCI-H522
HCT-15 = system: HCT-15
SK-MEL-28 = system: SK-MEL-28
OVCAR-3 = system: OVCAR-3
CAKI-1 = system: CAKI-1
HL-60 = system: HL-60
SW-620 = system: SW-620
EKVX = system: EKVX
NCI-H460 = system: NCI-H460
BT-549 = system: BT-549
TK-10 = system: TK-10
HOP-62 = system: HOP-62
T47D = system: T47D
HCC 2998 = system: HCC 2998
K562 = system: K562
RPMI-8226 = system: RPMI-8226
OVCAR-4 = system: OVCAR-4
RXF 393 = system: RXF 393
MDA-N = system: MDA-N
PC-3 = system: PC-3
A549 = system: A549
SK-MEL-2 = system: SK-MEL-2
SK-MEL-5 = system: SK-MEL-5
IGROV-1 = system: IGROV-1
KM12 = system: KM12
MCF7 = system: MCF7
UO-31 = system: UO-31
CCRF-CEM = system: CCRF-CEM
SF-539 = system: SF-539

Structure (SMILES): CC(CC(C#N)(c1ccccc1)c1ccccc1)N1CCCCC1 (centres undefined)
- GI50 (MDA-MB-231): 25.7 µM (inactive)
- GI50 (NCI-H23): 37.8 µM (inactive)
- GI50 (ACHN): 43.7 µM (inactive)
- GI50 (786-0): 27.3 µM (inactive)
- GI50 (MOLT-4): 22.4 µM (inactive)
- GI50 (OVCAR-8): 42.1 µM (inactive)
- GI50 (SF-295): 20 µM (inactive)
- GI50 (Malme-3M): 17.3 µM (inactive)
- GI50 (NCI/ADR-RES): 28.1 µM (inactive)
- GI50 (UACC-62): 21.3 µM (inactive)
- GI50 (DU-145): 59.8 µM (inactive)
- GI50 (LOX IMVI): 17.3 µM (inactive)
- GI50 (HCT-116): 19.9 µM (inactive)
- GI50 (SNB-75): 29.7 µM (inactive)
- GI50 (SF-268): 48.9 µM (inactive)
- GI50 (A498): 21.6 µM (inactive)
- GI50 (SK-OV-3): 65.6 µM (inactive)
- GI50 (NCI-H226): 20.7 µM (inactive)
- GI50 (OVCAR-5): 33.1 µM (inactive)
- GI50 (HOP-92): 31.9 µM (inactive)
- GI50 (SN12C): 26 µM (inactive)
- GI50 (Hs-578T): 27.3 µM (inactive)
- GI50 (COLO 205): 16.2 µM (inactive)
- GI50 (UACC-257): 14.6 µM (inactive)
- GI50 (M14): 19 µM (inactive)
- GI50 (SNB-19): 80.5 µM (inactive)
- GI50 (U-251): 29.6 µM (inactive)
- GI50 (MDA-MB-435): 19.1 µM (inactive)
- GI50 (HT-29): 18.3 µM (inactive)
- GI50 (NCI-H522): 18.6 µM (inactive)
- GI50 (HCT-15): 22.9 µM
- GI50 (SK-MEL-28): 23.1 µM (inactive)
- GI50 (OVCAR-3): 17.6 µM (inactive)
- GI50 (CAKI-1): 39 µM (inactive)
- GI50 (HL-60): 21 µM (inactive)
- GI50 (SW-620): 19.2 µM (inactive)
- GI50 (EKVX): 23.8 µM (inactive)
- GI50 (NCI-H460): 16 µM (inactive)
- GI50 (BT-549): 29.5 µM (inactive)
- GI50 (TK-10): 20.6 µM (inactive)
- GI50 (HOP-62): 29.2 µM (inactive)
- GI50 (T47D): 49.7 µM (inactive)
- GI50 (HCC 2998): 15.4 µM (inactive)
- GI50 (K562): 19.3 µM (inactive)
- GI50 (RPMI-8226): 19.2 µM (inactive)
- GI50 (OVCAR-4): 39.6 µM (inactive)
- GI50 (RXF 393): 28.7 µM (inactive)
- GI50 (MDA-N): 19.1 µM (inactive)
- GI50 (PC-3): 32.6 µM (inactive)
- GI50 (A549): 44 µM (inactive)
- GI50 (SK-MEL-2): 21.2 µM (inactive)
- GI50 (SK-MEL-5): 18 µM (inactive)
- GI50 (IGROV-1): 43.2 µM (inactive)
- GI50 (KM12): 18.1 µM (inactive)
- GI50 (MCF7): 26.5 µM (inactive)
- GI50 (UO-31): 26.2 µM (inactive)
- GI50 (CCRF-CEM): 23.6 µM (inactive)

Structure (SMILES): CC1=C(C)C1[N+](=O)[O-]
- GI50 (MDA-MB-231): > 100 µM (inactive)
- GI50 (NCI-H23): > 100 µM (inactive)
- GI50 (ACHN): > 100 µM (inactive)
- GI50 (786-0): > 100 µM (inactive)
- GI50 (MOLT-4): > 100 µM (inactive)
- GI50 (OVCAR-8): > 100 µM (inactive)
- GI50 (SF-295): > 100 µM (inactive)
- GI50 (Malme-3M): 82.6 µM (inactive)
- GI50 (NCI/ADR-RES): > 100 µM (inactive)
- GI50 (UACC-62): > 100 µM (inactive)
- GI50 (DU-145): > 100 µM (inactive)
- GI50 (LOX IMVI): > 100 µM (inactive)
- GI50 (HCT-116): > 100 µM (inactive)
- GI50 (SNB-75): 26.1 µM (inactive)
- GI50 (SF-268): > 100 µM (inactive)
- GI50 (A498): 97.7 µM (inactive)
- GI50 (SK-OV-3): > 100 µM (inactive)
- GI50 (NCI-H226): > 100 µM (inactive)
- GI50 (SF-539): > 100 µM (inactive)
- GI50 (OVCAR-5): > 100 µM (inactive)
- GI50 (HOP-92): > 100 µM (inactive)
- GI50 (SN12C): > 100 µM (inactive)
- GI50 (Hs-578T): > 100 µM (inactive)
- GI50 (COLO 205): > 100 µM (inactive)
- GI50 (UACC-257): > 100 µM (inactive)
- GI50 (M14): > 100 µM (inactive)
- GI50 (SNB-19): > 100 µM (inactive)
- GI50 (U-251): > 100 µM (inactive)
- GI50 (MDA-MB-435): > 100 µM (inactive)
- GI50 (HT-29): > 100 µM (inactive)
- GI50 (NCI-H522): > 100 µM (inactive)
- GI50 (HCT-15): > 100 µM
- GI50 (SK-MEL-28): > 100 µM (inactive)
- GI50 (OVCAR-3): > 100 µM (inactive)
- GI50 (CAKI-1): > 100 µM (inactive)
- GI50 (HL-60): 43.9 µM (inactive)
- GI50 (SW-620): > 100 µM (inactive)
- GI50 (EKVX): > 100 µM (inactive)
- GI50 (NCI-H460): > 100 µM (inactive)
- GI50 (BT-549): > 100 µM (inactive)
- GI50 (TK-10): > 100 µM (inactive)
- GI50 (HOP-62): > 100 µM (inactive)
- GI50 (T47D): > 100 µM (inactive)
- GI50 (HCC 2998): > 100 µM (inactive)
- GI50 (K562): > 100 µM (inactive)
- GI50 (RPMI-8226): > 100 µM (inactive)
- GI50 (OVCAR-4): > 100 µM (inactive)
- GI50 (RXF 393): > 100 µM (inactive)
- GI50 (MDA-N): > 100 µM (inactive)
- GI50 (PC-3): > 100 µM (inactive)
- GI50 (A549): > 100 µM (inactive)
- GI50 (SK-MEL-5): > 100 µM (inactive)
- GI50 (IGROV-1): > 100 µM (inactive)
- GI50 (KM12): > 100 µM (inactive)
- GI50 (MCF7): > 100 µM (inactive)
- GI50 (UO-31): > 100 µM (inactive)
- GI50 (CCRF-CEM): > 100 µM (inactive)
